Assays:
[1] = pH of the mixture or of the acidified cysteine solution; settings: 0.05 g of cysteine in 1 mL of 0.0001 M HCl
[2] = Precipitation time upon mixing the cysteine solution and the ZLC solution; format: physicochemical

Compound | pH of solution 1 [1] | precipitation upon mixing ([2]; 0.05 g amino acid in 1 mL 0.0001M HCl, 4.95 g ZLC stock solution with no glycerol) | effect on precipitation time of ZLC ([2]; sulfur-containing amino acids)
N[C@@H](CS)C(=O)O [cysteine] | 5.13 |  | 
CSCC[C@H](N)C(=O)O [methionine] |  | No precipitation occurred | no effect
